Test results as given in US12441708B2, “Cereblon ligands and bifunctional compounds comprising the same” (Arvinas Operations, Inc., priority 2017, dated 2025).
Like-named read-outs stand apart in the source and are kept apart here.

What was measured:
[1] = target: estrogen receptor-alpha (ERα) (Homo sapiens (Human), UniProt P03372); assay: Estrogen receptor-alpha (ERα) degradation assay in MCF7 cells (In-Cell Western / western blot); format: cell-based; settings: % degraded, read-out: ER Degradation Dmax
estrogen receptor-alpha (ERα), sequence (P03372 whole entry): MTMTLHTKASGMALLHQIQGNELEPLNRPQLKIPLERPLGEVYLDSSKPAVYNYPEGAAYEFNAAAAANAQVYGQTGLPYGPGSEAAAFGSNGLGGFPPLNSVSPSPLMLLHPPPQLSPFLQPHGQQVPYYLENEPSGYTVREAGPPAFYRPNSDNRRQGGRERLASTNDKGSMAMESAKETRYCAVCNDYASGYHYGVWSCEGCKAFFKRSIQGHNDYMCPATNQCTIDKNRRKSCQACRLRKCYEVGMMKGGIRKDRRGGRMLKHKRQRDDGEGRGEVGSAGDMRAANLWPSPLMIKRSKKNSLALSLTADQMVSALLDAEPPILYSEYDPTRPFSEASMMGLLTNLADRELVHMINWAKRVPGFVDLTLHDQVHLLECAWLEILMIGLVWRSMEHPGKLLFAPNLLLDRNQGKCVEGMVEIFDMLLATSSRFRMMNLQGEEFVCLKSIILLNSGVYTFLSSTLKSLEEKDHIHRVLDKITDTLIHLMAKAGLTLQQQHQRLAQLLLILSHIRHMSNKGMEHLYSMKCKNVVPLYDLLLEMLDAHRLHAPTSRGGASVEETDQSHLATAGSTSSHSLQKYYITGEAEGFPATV
Procedure: 2. Estrogen Receptor-Alpha (ERα) Degradation Assay in MCF-7 Cells Using Western Blot Method for Table 5
The exemplary novel ERα degraders were assessed for their activity in degrading ERα in MCF-7 cells via western blot. The assay was carried out in the presence of 10% FBS or high percentage of human or mouse serum. Protocols of the western blot assay are described below.
MCF7 cells were grown in DMEM/F12 with 10% FBS and seeded at 24,000 cells per well in 100 μl into 96-well clear tissue culture plates. The following day, the cells were treated with PROTACs in a […] concentration curve with 100 nM being the top concentration and serial dilutions to make the other concentrations (30 nM, 10 nM. 3 nM, 1 nM, and 0.3 nM). At all concentrations, 0.01% DMSO is the final concentration in the well. The following day, the plates are aspirated, washed with 50 μl of cold PBS. The cells are lysed with 50 μl/well 4° C. Cell Lysis Buffer (Catalog #9803; Cell Signaling Technology, Danvers, MA) (20 mM Tris-HCL (pH 7.5), 150 mM NaCl, 1 mM Na2EDTA, 1 mM EGTA, 1% Triton, 2.5 mM sodium pyrophosphate, 1 mM B-glycerophosphate, 1 mM sodium vanadate, 1 μg/ml leupeptin). Lysates were clarified at 16,000× g for 10 minutes, and 2 μg of protein was subjected to SDS-PAGE analysis and followed by immunoblotting according to standard protocols. The antibodies used were ERα (Cell Signaling, Technologies Catalog #8644), and Tubulin (Sigma Catalog #T9026; St. Louis, MO). Detection reagents were Clarity Western ECL substrate (Bio-Rad Catalog 4170-5060; Hercules, CA).
Alternatively, MCF7 cells were grown in DMEM/F12 with 10% FBS and seeded at 24,000 cells per well in 500 μl in 24-well clear tissue culture plates. The following day, the cells were treated with PROTACs in a 5-point concentration curve (100 nM, 33 nM, 11 nM, 3.7 nM, and 1.2 nM) in the presence of 0.01% DMSO. After 72 hours, the wells are aspirated and washed with 500 μl of PBS. The cells are lysed with 100 μl/well 4° C. Cell Lysis Buffer (Catalog #9803; Cell Signaling Technology, Danvers, MA) (20 mM Tris-HCL (pH 7.5), 150 mM NaCl, 1 mM Na2EDTA, 1 mM EGTA, 1% Triton, 2.5 mM sodium pyrophosphate, 1 mM B-glycerophosphate, 1 mM sodium vanadate, 1 ug/ml leupeptin). Lysates were clarified at 16,000× g for 10 minutes, and 2 μg of protein was subjected to SDS-PAGE analysis and followed by immunoblotting according to standard protocols. The antibodies used were ERα (Cell Signaling Technologies Catalog #8644), and Tubulin (Sigma Catalog #T9026; St. Louis, MO). Detection reagents were Clarity Western ECL substrate (Bio-Rad Catalog 4170-5060; Hercules, CA).
3. Estrogen receptor-alpha (ERα) degradation assay using In-Cell Western™ Assay for Table 5
Degradation of ERα by claimed compounds were determined in MCF7 cells using an In-Cell Western™ assay. Briefly, MCF7 cells were plated in 96-well plates (2000 cells per well in 100 μl media) and incubated at 37° C. under an atmosphere of 5% CO2 in a humidified incubator overnight. One-hundred (100) μl of media containing test compound (at 2× concentration) was added to the appropriate wells to provide 11 serially decreasing concentrations (top final concentration, 1 μM then 3-fold less for the next 10 concentrations); a vehicle control (DMSO) was also added for each compound. For each experiment, all compounds were assayed in duplicate plates. Cells were then incubated for 3 or 5 days in the above-mentioned environment. The assay was terminated by removal of media, a single wash with ice-cold PBS and the addition of […] paraformaldehyde (PFA: 4% in PBS). After 15 minutes in PFA at room temperature, the cells were permeabilized in Tris-phosphate-buffered saline with Tween (0.1%) (TBST) supplemented with Triton X-100 (0.5%) for 15 minutes. Cells were then blocked in BSA (TBST with BSA, 3%) for one hour. […] The cells were incubated overnight at 4° C. […]

estrogen receptor = assay: ERE luciferase assay in T47D-KBluc cells; format: cell-based; settings: Homo sapiens, 24 hours, read-out: ER Target Engagement IC50
Procedure: 1. ERE Luciferase Assay for Compounds in Table 2
T47D-1(Bluc cells (ATCC® ECRL 2 65, T47D human breast cancer cells stably transfected with estrogen responsive element/promoter/luciferase reporter gene) were seeded into 96-well white opaque plates in IR: PM growth medium supplemented with 10% fetal bovine serum (FBS) and allowed to adhere overnight in a 37° C. humidified incubator. The following day, cells were treated with PROTACs in a 12-point concentration curve (top final concentration of 300 nM with subsequent concentrations being 3-fold less with […] being the lowest concentration in the assay). Each PROTAC was tested independently in two experiments on 96-well plates. After 24 hours, media was removed and lysis buffer was added to the wells. Following lysis, Bright-Glo™ Luciferase Assay Substrate (Promega, Madison WI) was added and the luciferase activity was measured using a Cytation 3 plate reader (BioTek™, Winooski, VT). Each compound was assayed in duplicate and the activity was calculated as […] using GraphPad Prism software (San Diego, CA).

SMILES | Dmax ([1]; 3 day incubation) [%] | IC50 (estrogen receptor) [nM] | Dmax ([1]; 5 day incubation) [%]
CN(C(=O)c1ccc(N2CCN(CCCCCOc3ccc([C@@H]4c5ccc(O)cc5CC[C@@H]4c4ccccc4)cc3)CC2)cc1)C1CCC(=O)NC1=O (mixture of isomers) [PROTAC-90, rac-N-(2,6-dioxopiperidin-3-yl)-4-(4-(5-(4-((1R,2S)-6-hydroxy-2-phenyl-1,2,3,4-tetrahydronaphthalen-1-yl)phenoxy)pentyl)piperazin-1-yl)-N-methylbenzamide] |  | 1 to 10 | > 75
O=C1CCC(NC(=O)c2ccc(N3CCN(CCCCCOc4ccc([C@@H]5c6ccc(O)cc6CC[C@@H]5c5ccccc5)cc4)CC3)cn2)C(=O)N1 (mixture of isomers) [PROTAC-91, rac-N-(2,6-dioxopiperidin-3-yl)-5-(4-(5-(4-((1R,2S)-6-hydroxy-2-phenyl-1,2,3,4-tetrahydronaphthalen-1-yl)phenoxy)pentyl)piperazin-1-yl)picolinamide] |  | 1 to 10 | > 75
O=C1CCC(n2ncc(Oc3ccc(CCCCOc4ccc([C@@H]5c6ccc(O)cc6CC[C@@H]5c5ccc(F)cc5)cc4)nc3)cc2=O)C(=O)N1 (mixture of isomers) [PROTAC-98, rac-3-(4-((6-(4-(4-((1R,2S)-2-(4-fluorophenyl)-6-hydroxy-1,2,3,4-tetrahydro-naphthalen-1-yl)phenoxy)butyl)pyridin-3-yl)oxy)-6-oxopyridazin-1(6H)-yl)piperidine-2,6-dione] |  | 1 to 10 | ≤ 50
O=C1CCC(n2ncc(Oc3ccc(CCCCCOc4ccc([C@@H]5c6ccc(O)cc6CC[C@@H]5c5ccc(F)cc5)cc4)nc3)cc2=O)C(=O)N1 (mixture of isomers) [PROTAC-99, rac-3-(4-((6-(5-(4-((1R,2S)-2-(4-fluorophenyl)-6-hydroxy-1,2,3,4-tetrahydro-naphthalen-1-yl)phenoxy)pentyl)pyridin-3-yl)oxy)-6-oxopyridazin-1(6H)-yl)piperidine-2,6-dione] |  | 10 to 100 | ≤ 50
O=C1CCC(n2ncc(N3CCN(CCCCCOc4ccc([C@@H]5c6ccc(O)cc6CC[C@@H]5c5ccccc5)cc4)CC3)cc2=O)C(=O)N1 (mixture of isomers) [PROTAC-100, rac-3-(4-(4-(5-(4-((1R,2S)-6-hydroxy-2-phenyl-1,2,3,4-tetrahydronaphthalen-1-yl)phenoxy)pentyl)piperazin-1-yl)-6-oxopyridazin-1(6H)-yl)piperidine-2,6-dione] |  | 1 to 10 | 50 to 75
O=C1CCC(n2cnc(N3CCN(CCCCCOc4ccc([C@@H]5c6ccc(O)cc6CC[C@@H]5c5ccccc5)cc4)CC3)cc2=O)C(=O)N1 (mixture of isomers) [PROTAC-101, rac-3-(4-(4-(5-(4-((1R,2S)-6-hydroxy-2-phenyl-1,2,3,4-tetrahydronaphthalen-1-yl)phenoxy)pentyl)piperazin-1-yl)-6-oxopyrimidin-1(6H)-yl)piperidine-2,6-dione] |  | 1 to 10 | 50 to 75
O=C1CCC(n2cc(-c3ccc(N4CCN(CCCOc5ccc([C@@H]6c7ccc(O)cc7CC[C@@H]6c6ccccc6)cc5)CC4)cc3)cn2)C(=O)N1 (mixture of isomers) [PROTAC-110, rac-3-(4-(4-(4-(3-(4-((1R,2S)-6-hydroxy-2-phenyl-1,2,3,4-tetrahydronaphthalen-1-yl)phenoxy)propyl)piperazin-1-yl)phenyl)-1H-pyrazol-1-yl) piperidine-2,6-dione] |  | < 1 | 50 to 75
O=C1CCC(n2cc(-c3ccc(N4CCN(CCCOc5ccc([C@@H]6c7ccc(O)cc7CC[C@@H]6c6ccccc6)cc5)CC4)nc3)cn2)C(=O)N1 (mixture of isomers) [PROTAC-111, rac-3-(4-(6-(4-(3-(4-((1R,2S)-6-hydroxy-2-phenyl-1,2,3,4-tetrahydronaphthalen-1-yl)phenoxy)propyl)piperazin-1-yl)pyridin-3-yl)-1H-pyrazol-1-yl) piperidine-2,6-dione] |  | < 1 | ≤ 50

Next, values leading:

Dmax ([1]; 3 day incubation) [%] | IC50 (estrogen receptor) [nM] | Dmax ([1]; 5 day incubation) [%] | SMILES
≤ 50 | 10 to 100 |  | O=C1CCC(n2ncc(Oc3ccc(O[C@H]4CCN(CCOc5ccc([C@H]6c7ccc(O)cc7CC[C@H]6c6ccc(F)cc6)cc5)C4)nc3)cc2=O)C(=O)N1 (mixture of isomers) [PROTAC-93, rac-3-(4-((6-(((R)-1-(2-(4-((1R,2S)-2-(4-fluorophenyl)-6-hydroxy-1,2,3,4-tetrahydronaphthalen-1-yl)phenoxy)ethyl)pyrrolidin-3-yl)oxy)pyridin-3-yl)oxy)-6-oxopyridazin-1(6H)-yl)piperidine-2,6-dione]
≤ 50 | < 1 |  | O=C1CCC(n2ncc(Oc3ccc(O[C@H]4CCN(CCOc5ccc([C@@H]6c7ccc(O)cc7CC[C@@H]6c6ccc(F)cc6)cc5)C4)nc3)cc2=O)C(=O)N1 (mixture of isomers) [PROTAC-94, rac-3-(4-((6-(((R)-1-(2-(4-((1S,2R)-2-(4-fluorophenyl)-6-hydroxy-1,2,3,4-tetrahydronaphthalen-1-yl)phenoxy)ethyl)pyrrolidin-3-yl)oxy)pyridin-3-yl)oxy)-6-oxopyridazin-1(6H)-yl)piperidine-2,6-dione]
≤ 50 | 10 to 100 |  | O=C1CCC(n2ncc(Oc3ccc(O[C@@H]4CCN(CCOc5ccc([C@H]6c7ccc(O)cc7CC[C@H]6c6ccc(F)cc6)cc5)C4)nc3)cc2=O)C(=O)N1 (mixture of isomers) [PROTAC-97, rac-3-(4-((6-(((R)-1-(2-(4-((1S,2R)-2-(4-fluorophenyl)-6-hydroxy-1,2,3,4-tetrahydronaphthalen-1-yl)phenoxy)ethyl)pyrrolidin-3-yl)oxy)pyridin-3-yl)oxy)-6-oxopyridazin-1(6H)-yl)piperidine-2,6-dione]
≤ 50 | ≥ 100 |  | O=C1CCC(n2ncc(Oc3ccc(N4CCN(CCOc5ccc([C@H]6c7ccc(O)cc7CC[C@H]6c6ccc(F)cc6)cc5)CC4)nc3)cc2=O)C(=O)N1 (mixture of isomers) [PROTAC-95, rac-3-(4-((6-(4-(2-(4-((1R,2S)-2-(4-fluorophenyl)-6-hydroxy-1,2,3,4-tetrahydronaphthalen-1-yl)phenoxy)ethyl)piperazin-1-yl)pyridin-3-yl)oxy)-6-oxopyridazin-1(6H)-yl)piperidine-2,6-dione]
≤ 50 | < 1 |  | O=C1CCC(n2ncc(Oc3ccc(N4CCN(CCOc5ccc([C@@H]6c7ccc(O)cc7CC[C@@H]6c6ccc(F)cc6)cc5)CC4)nc3)cc2=O)C(=O)N1 (mixture of isomers) [PROTAC-96, rac-3-(4-((6-(4-(2-(4-((1R,2S)-2-(4-fluoro-phenyl)-6-hydroxy-1,2,3,4-tetrahydro-naphthalen-1-yl)phenoxy)ethyl)piperazin-1-yl)pyridin-3-yl)oxy)-6-oxopyridazin-1(6H)-yl)piperidine-2,6-dione]
